Earlier results in patent US9409968B2, “Toll-like receptor-based biosensors” (University of Massachusetts, priority 2009, dated 2016).

Tested on: lupus-prone mice
Conditions: administered to lupus-prone mice

In the case of “5′-TGCTCCTGGAGGGGTTGT-3′ (listed as DNA, chemistry not given here) [IRS 954]”, the autoantibody production is given as “reduction of autoantibody production” and the disease symptoms is given as “amelioration of disease symptoms”.
